These results are taken from patent publication US10793542B2, “Hetroarylamine compounds for modulating the hedgehog pathway and preparing method and uses thereof” (DEVELOPMENT CENTER FOR BIOTECHNOLOGY, priority 2016, dated 2020).

Each structure is given as a SMILES string.

Holding throughout (format): cell-based
The target in test [1] is T1, Smo D473H mutant (Homo sapiens, UniProt Q99835, D473H).
T1 construct: expressed in transfected cells; host or cells: C3H10T1/2 cells (ATCC CCL-226), transient transfection with pLPCX-SMO-D473H
T1 sequence (Q99835 28-787 D473H): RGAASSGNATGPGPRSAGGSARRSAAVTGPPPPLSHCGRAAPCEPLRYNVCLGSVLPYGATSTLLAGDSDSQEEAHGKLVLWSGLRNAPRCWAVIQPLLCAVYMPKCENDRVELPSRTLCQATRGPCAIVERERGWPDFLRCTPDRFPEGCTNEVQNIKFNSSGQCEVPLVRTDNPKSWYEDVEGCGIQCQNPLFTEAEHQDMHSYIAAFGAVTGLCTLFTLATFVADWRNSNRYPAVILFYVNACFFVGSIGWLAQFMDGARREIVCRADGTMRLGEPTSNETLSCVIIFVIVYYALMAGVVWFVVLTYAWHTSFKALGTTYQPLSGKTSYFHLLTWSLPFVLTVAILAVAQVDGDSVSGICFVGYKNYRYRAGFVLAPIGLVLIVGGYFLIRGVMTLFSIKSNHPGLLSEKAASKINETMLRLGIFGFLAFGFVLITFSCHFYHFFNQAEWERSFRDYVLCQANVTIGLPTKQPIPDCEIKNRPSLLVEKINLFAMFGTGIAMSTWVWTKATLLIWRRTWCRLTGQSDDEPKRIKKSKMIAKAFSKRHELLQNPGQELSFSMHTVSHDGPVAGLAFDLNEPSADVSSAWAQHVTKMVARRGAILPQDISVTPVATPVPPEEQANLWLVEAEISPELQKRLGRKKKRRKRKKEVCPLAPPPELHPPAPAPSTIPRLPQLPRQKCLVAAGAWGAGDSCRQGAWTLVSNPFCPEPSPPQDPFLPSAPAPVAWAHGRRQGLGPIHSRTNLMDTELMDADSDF
Briefly: Reporter assay of C3H10T1/2-Gli-Luc cells transfected with Smo D473H mutant, without SAG. The conditions noted are these: C3H10T1/2 cells transfected with pLPCX-SMO-D473H, no SAG, 48 hr; read-out: Inhibition of C3H10T1/2-Gli-Luc-Smo-D473H [IC50. The procedure, abridged: (§1)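 C3H10T1/2-Gli-Luc cells transiently transfected with wild-type or D473H SMO, replated in 0.5% FBS RPMI and incubated with compounds 48 h at 37 °C without SAG. Dual-luciferase, firefly normalized to Renilla; scaled to DMSO (100%) and 10 μM ALLO-2 (0%); IC50 by nonlinear regression.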
(In general: A reporter such as luciferase makes a cellular process visible.)

Test [2] deals with T2, Smo wild type (Homo sapiens, UniProt Q99835).
T2 construct: expressed in transfected cells; host or cells: C3H10T1/2 cells (ATCC CCL-226), transient transfection with pLPCX-SMO
T2 sequence (Q99835 28-787): as the sequence (Q99835 28-787 D473H) above, with H446D counted along it
Briefly: Reporter assay of C3H10T1/2-Gli-Luc cells transfected with wild-type Smo, without SAG. Conditions: C3H10T1/2 cells transfected with pLPCX-SMO, no SAG, 48 hr; read-out: Inhibition of C3H10T1/2-Gli-Luc-Smo-WT [IC50. In short, it runs like this: as §1

Test [3] has as its system hedgehog pathway (pGL3-7xGli-Luciferase reporter in C3H10T1/2 cells). Description: Transient transfection of C3H10T1/2 and Gli-Luc reporter assay with SAG stimulation. Conditions: Mus musculus, C3H 10T1/2, SAG 20 nM, 48 hr, read-out: Inhibition of Gli-Luc expression [IC50. In short, it runs like this: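 C3H10T1/2 cells were transiently transfected with a 7xGli-firefly luciferase reporter and a TK-Renilla control, then treated with serially diluted compounds plus 20 nM SAG in 0.5% FBS for 48 h at 37 °C. Firefly signal was normalized to Renilla and scaled between DMSO with SAG (100%) and without SAG (0%). IC50 was obtained by nonlinear regression.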

Regarding `COc1ccc(CN2CCOCC2)cc1NC(=O)c1ccc(Nc2ncc(SC)c(-c3ccc(F)cc3)n2)cc1` [Compound 59, 4-[4-(4-Fluoro-phenyl)-5-methylsulfanyl-pyrimidin-2-ylamino]-N-(2-methoxy-5-morpholin-4-ylmethyl-phenyl)-benzamide], the IC50 in test [1], in test [2] and in test [3] was 100 to 1000 nM each time.
On to `COc1cnc(Nc2ccc(C(=O)Nc3cc(CN4CCOCC4)ccc3C)cc2F)nc1-c1ccc(F)cc1` [Compound 60, 3-Fluoro-4-[4-(4-fluoro-phenyl)-5-methoxy-pyrimidin-2-ylamino]-N-(2-methyl-5-morpholin-4-ylmethyl-phenyl)-benzamide], for which the IC50 in test [1], in test [2] and in test [3] was under 100 nM each time.
As for `CCN(CC)Cc1ccc(C)c(NC(=O)c2ccc(Nc3ncc(OC)c(-c4ccc(OC(F)(F)F)cc4)n3)c(F)c2)c1` [Compound 61, N-(5-Diethylaminomethyl-2-methyl-phenyl)-3-fluoro-4-[5-methoxy-4-(4-trifluoromethoxy-phenyl)-pyrimidin-2-ylamino]-benzamide], the results for the IC50 in test [1], in test [2] and in test [3] were 100 to 1000 nM, under 100 nM and under 100 nM, respectively.
As for `COc1cnc(Nc2ccc(C(=O)Nc3cc(CN4CCN(C)CC4)ccc3C)cc2F)nc1-c1ccc(OC(F)(F)F)cc1` [Compound 62, 3-Fluoro-4-[5-methoxy-4-(4-trifluoromethoxy-phenyl)-pyrimidin-2-ylamino]-N-[2-methyl-5-(4-methyl-piperazin-1-ylmethyl)-phenyl]-benzamide], the figures for the IC50 in test [1], in test [2] and in test [3] were 100 to 1000 nM, under 100 nM and under 100 nM, respectively.
`CSc1cnc(Nc2ccc(C(=O)Nc3cc(CN4CCOCC4)ccc3C)cn2)nc1-c1ccc(OC(F)(F)F)cc1` [Compound 63, N-(2-Methyl-5-morpholin-4-ylmethyl-phenyl)-6-[5-methylsulfanyl-4-(4-trifluoromethoxy-phenyl)-pyrimidin-2-ylamino]-nicotinamide]: the IC50 in test [1], in test [2] and in test [3] was under 100 nM throughout.
In the case of `CSc1cnc(Nc2ccc(C(=O)Nc3cccc(CN4CCOCC4)c3)cn2)nc1-c1ccc(OC(F)(F)F)cc1` [Compound 64, 6-[5-Methylsulfanyl-4-(4-trifluoromethoxy-phenyl)-pyrimidin-2-ylamino]-N-(3-morpholin-4-ylmethyl-phenyl)-nicotinamide], the IC50 in test [1], in test [2] and in test [3] was under 100 nM throughout.
`CSc1cnc(Nc2ccc(C(=O)Nc3cccc(CN4CCOCC4)c3)cc2)nc1-c1ccc(OC(F)(F)F)cc1` [Compound 65, 4-[5-Methylsulfanyl-4-(4-trifluoromethoxy-phenyl)-pyrimidin-2-ylamino]-N-(3-morpholin-4-ylmethyl-phenyl)-benzamide]: the IC50 in test [1] was 100 to 1000 nM; in test [2], under 100 nM; in test [3] it was under 100 nM.
Regarding `CCN(CC)Cc1ccc(C)c(NC(=O)c2ccc(Nc3ncc(SC)c(-c4ccc(OC(F)(F)F)cc4)n3)nc2)c1` [Compound 66, N-(5-Diethylaminomethyl-2-methyl-phenyl)-6-[5-methylsulfanyl-4-(4-trifluoromethoxy-phenyl)-pyrimidin-2-ylamino]-nicotinamide], the IC50 in test [1] was 100 to 1000 nM; in test [2] it was under 100 nM; in test [3], under 100 nM.
Turning to `CSc1cnc(Nc2ccc(C(=O)Nc3cc(CN4CCOCC4)ccc3C)cc2)nc1-c1ccc(F)nc1` [Compound 67, 4-[4-(6-Fluoro-pyridin-3-yl)-5-methylsulfanyl-pyrimidin-2-ylamino]-N-(2-methyl-5-morpholin-4-ylmethyl-phenyl)-benzamide], the IC50 in test [1] is 100 to 1000 nM; in test [2] it was under 100 nM; in test [3], under 100 nM.
`CSc1cnc(Nc2ccc(C(=O)Nc3cc(CN4CCOCC4)ccc3C)cc2)nc1-c1ccc(C(F)(F)F)nc1` [Compound 68, N-(2-Methyl-5-morpholin-4-ylmethyl-phenyl)-4-[5-methylsulfanyl-4-(6-trifluoromethyl-pyridin-3-yl)-pyrimidin-2-ylamino]-benzamide]: the IC50 was 100 to 1000 nM in test [1], under 100 nM in test [2] and 100 to 1000 nM in test [3].
For the compound `CSc1cnc(Nc2ccc(C(=O)Nc3cccc(CN4CCOCC4)c3)cc2)nc1-c1ccc(C(F)(F)F)nc1` [Compound 69, 4-[5-Methylsulfanyl-4-(6-trifluoromethyl-pyridin-3-yl)-pyrimidin-2-ylamino]-N-(3-morpholin-4-ylmethyl-phenyl)-benzamide], the IC50 in test [1] is 100 to 1000 nM; in test [2] it was under 100 nM; in test [3] it was under 100 nM.
Regarding `CSc1cnc(Nc2ccc(C(=O)Nc3cc(CN4CCOCC4)ccc3F)cc2)nc1-c1ccc(OC(F)(F)F)cc1` [Compound 70, N-(2-Fluoro-5-morpholin-4-ylmethyl-phenyl)-4-[5-methylsulfanyl-4-(4-trifluoromethoxy-phenyl)-pyrimidin-2-ylamino]-benzamide], the IC50 in test [1], in test [2] and in test [3] was under 100 nM in each case.
`CSc1cnc(Nc2ccc(C(=O)Nc3cc(CN4CCOCC4)ccc3F)cc2)nc1-c1ccc(F)cc1` [Compound 71, N-(2-Fluoro-5-morpholin-4-ylmethyl-phenyl)-4-[4-(4-fluoro-phenyl)-5-methylsulfanyl-pyrimidin-2-ylamino]-benzamide]: the IC50 in test [1], in test [2] and in test [3] was under 100 nM each time.
With `CCOc1cnc(Nc2ccc(C(=O)Nc3cc(CN4CCOCC4)ccc3C)cc2)nc1-c1ccc(OC(F)(F)F)cc1` [Compound 72, 4-[5-Ethoxy-4-(4-trifluoromethoxy-phenyl)-pyrimidin-2-ylamino]-N-(2-methyl-5-morpholin-4-ylmethyl-phenyl)-benzamide], the IC50 in test [1], in test [2] and in test [3] was under 100 nM in each case.
With `CCOc1cnc(Nc2ccc(C(=O)Nc3cc(CN4CCN(C)CC4)ccc3C)cc2)nc1-c1ccc(OC(F)(F)F)cc1` [Compound 73, 4-[5-Ethoxy-4-(4-trifluoromethoxy-phenyl)-pyrimidin-2-ylamino]-N-[2-methyl-5-(4-methyl-piperazin-1-ylmethyl)-phenyl]-benzamide], the IC50 is 100 to 1000 nM in test [1], under 100 nM in test [2] and under 100 nM in test [3].
`CCOc1cnc(Nc2ccc(C(=O)Nc3cc(CN(CC)CC)ccc3C)cc2)nc1-c1ccc(OC(F)(F)F)cc1` [Compound 74, N-(5-Diethylaminomethyl-2-methyl-phenyl)-4-[5-ethoxy-4-(4-trifluoromethoxy-phenyl)-pyrimidin-2-ylamino]-benzamide]: the IC50 in test [1] is 100 to 1000 nM; in test [2] it was under 100 nM; in test [3], under 100 nM.
`CCOc1cnc(Nc2ccc(C(=O)Nc3cc(CN4CCOCC4)ccc3C)cc2)nc1-c1ccc(F)cc1` [Compound 75, 4-[5-Ethoxy-4-(4-fluoro-phenyl)-pyrimidin-2-ylamino]-N-(2-methyl-5-morpholin-4-ylmethyl-phenyl)-benzamide]: the results for the IC50 in test [1], in test [2] and in test [3] were 100 to 1000 nM, under 100 nM and under 100 nM, respectively.
Regarding `CCOc1cnc(Nc2ccc(C(=O)Nc3cc(CN4CCN(C)CC4)ccc3C)cc2)nc1-c1ccc(F)cc1` [Compound 76, 4-[5-Ethoxy-4-(4-fluoro-phenyl)-pyrimidin-2-ylamino]-N-[2-methyl-5-(4-methyl-piperazin-1-ylmethyl)-phenyl]-benzamide], the IC50 in test [1], in test [2] and in test [3] was under 100 nM throughout.
Turning to `CCOc1cnc(Nc2ccc(C(=O)Nc3cc(CN(CC)CC)ccc3C)cc2)nc1-c1ccc(F)cc1` [Compound 77, N-(5-Diethylaminomethyl-2-methyl-phenyl)-4-[5-ethoxy-4-(4-fluoro-phenyl)-pyrimidin-2-ylamino]-benzamide], the IC50 was 100 to 1000 nM in test [1], under 100 nM in test [2] and under 100 nM in test [3].
With `CSc1cnc(Nc2ccc(C(=O)Nc3cc(CN4CCNCC4)ccc3C)cc2F)nc1-c1ccc(F)cc1` [Compound 78, 3-Fluoro-4-[4-(4-fluoro-phenyl)-5-methylsulfanyl-pyrimidin-2-ylamino]-N-(2-methyl-5-piperazin-1-ylmethyl-phenyl)-benzamide], the IC50 in test [1], in test [2] and in test [3] was 100 to 1000 nM each time.
Consider `COc1cnc(Nc2ccc(C(=O)Nc3cc(CN4CCNCC4)ccc3C)cc2)nc1-c1ccc(F)cc1` [Compound 79, 4-[4-(4-Fluoro-phenyl)-5-methoxy-pyrimidin-2-ylamino]-N-(2-methyl-5-piperazin-1-ylmethyl-phenyl)-benzamide], for which the IC50 in test [1] was 100 to 1000 nM; in test [2] it was 100 to 1000 nM; in test [3], under 100 nM.
